Measurements: paper PMC4961458 (eLife, 2016)
Where two headings read alike, the source gives them in different places.

What was measured:
GR = molecular target: T1, GR (Homo sapiens, UniProt P04150); experiment: GR competitive radioligand binding assay
T1 sequence (P04150 1-777): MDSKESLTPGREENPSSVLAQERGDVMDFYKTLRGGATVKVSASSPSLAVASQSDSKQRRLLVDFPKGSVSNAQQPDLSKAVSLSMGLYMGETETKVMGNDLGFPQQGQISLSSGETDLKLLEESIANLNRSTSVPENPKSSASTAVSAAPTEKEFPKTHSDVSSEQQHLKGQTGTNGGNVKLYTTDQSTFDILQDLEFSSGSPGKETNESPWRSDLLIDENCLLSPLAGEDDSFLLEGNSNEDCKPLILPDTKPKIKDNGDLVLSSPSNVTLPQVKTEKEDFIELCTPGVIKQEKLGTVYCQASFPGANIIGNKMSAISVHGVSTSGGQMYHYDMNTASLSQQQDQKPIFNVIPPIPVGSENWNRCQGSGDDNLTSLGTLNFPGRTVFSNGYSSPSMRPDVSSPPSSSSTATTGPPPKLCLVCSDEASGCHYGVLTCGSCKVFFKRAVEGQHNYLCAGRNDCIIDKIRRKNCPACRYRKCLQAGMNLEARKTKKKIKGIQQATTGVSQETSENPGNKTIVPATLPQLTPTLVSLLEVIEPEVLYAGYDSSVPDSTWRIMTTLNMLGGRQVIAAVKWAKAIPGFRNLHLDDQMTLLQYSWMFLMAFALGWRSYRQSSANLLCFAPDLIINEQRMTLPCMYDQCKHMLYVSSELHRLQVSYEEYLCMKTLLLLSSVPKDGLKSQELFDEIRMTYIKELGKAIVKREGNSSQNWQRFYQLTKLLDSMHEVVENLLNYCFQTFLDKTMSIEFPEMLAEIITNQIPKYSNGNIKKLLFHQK
Method: Reactions were conducted in 96-well plates in TEGM (10 mM Tris-HCl pH 7.2, 1 mM EDTA, 10% glycerol, 1 mM β-mercaptoethanol, 10 mM sodium molybdate). […] All reactions were set up in duplicates and incubated at 4°C overnight. Receptor-bound ^3H-DEX was isolated by ultrafiltration using a Unifilter-96 GF/C filter plate (Perkin Elmer), eluted in 30 µL Microscint-20 and quantified using a scintillation counter (Top Count).

PR-B = molecular target: T2, PR-B (Homo sapiens, UniProt P06401); experiment: PR-B transcriptional reporter assay, agonist mode (HEPG2 cells); assay type: cell-based; settings: % of maximal R5020-stimulated activity
T2 construct: cloning full-length human PRb into pCDNA; expressed in transfected cells; host or cells: HEPG2
T2 sequence (P06401 1-933): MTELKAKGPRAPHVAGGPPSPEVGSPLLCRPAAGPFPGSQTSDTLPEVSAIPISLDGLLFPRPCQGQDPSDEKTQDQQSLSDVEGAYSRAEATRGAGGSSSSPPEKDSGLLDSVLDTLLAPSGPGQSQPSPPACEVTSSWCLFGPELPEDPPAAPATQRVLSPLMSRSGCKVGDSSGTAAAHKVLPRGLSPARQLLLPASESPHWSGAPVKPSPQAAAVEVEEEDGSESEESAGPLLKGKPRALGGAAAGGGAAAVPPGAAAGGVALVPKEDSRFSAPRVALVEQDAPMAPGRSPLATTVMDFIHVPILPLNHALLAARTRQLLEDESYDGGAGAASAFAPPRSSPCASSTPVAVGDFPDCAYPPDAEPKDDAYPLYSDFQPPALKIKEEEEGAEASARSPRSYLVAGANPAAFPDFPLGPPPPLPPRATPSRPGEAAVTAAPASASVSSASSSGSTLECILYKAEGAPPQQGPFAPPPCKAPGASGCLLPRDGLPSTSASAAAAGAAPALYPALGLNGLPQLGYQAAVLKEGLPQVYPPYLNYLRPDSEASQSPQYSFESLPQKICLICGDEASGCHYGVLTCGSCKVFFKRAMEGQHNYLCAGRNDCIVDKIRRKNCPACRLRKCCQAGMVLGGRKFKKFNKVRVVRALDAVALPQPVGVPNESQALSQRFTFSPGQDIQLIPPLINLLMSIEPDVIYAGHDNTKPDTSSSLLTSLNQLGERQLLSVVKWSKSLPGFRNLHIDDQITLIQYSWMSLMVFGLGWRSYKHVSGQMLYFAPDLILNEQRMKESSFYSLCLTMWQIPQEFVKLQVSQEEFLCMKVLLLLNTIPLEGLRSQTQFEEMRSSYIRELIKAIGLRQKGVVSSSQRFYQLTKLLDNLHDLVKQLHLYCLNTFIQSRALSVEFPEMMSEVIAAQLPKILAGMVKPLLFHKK

**Q.** How did the IC50 (GR; 3.0 nM 3H-dexamethasone, read-out: GR IC50) turn out when CC/C(=C(\c1ccc(O)cc1)c1ccc(OCCN(C)C)cc1)c1ccccc1 [4-OH Tam, 4-hydroxytamoxifen] was run?
**A.** > 1800 nM

**Q.** What about the Emax (PR-B) of the same compound?
**A.** 0.39 ± 0.23%

**Q.** With C[C@]12CC[C@@H]3c4ccc(O)cc4C[C@@H](CCCCCCCCC[S+]([O-])CCCC(F)(F)C(F)(F)F)[C@H]3[C@@H]1CC[C@@H]2O (stereo partly shown) [Fulvestrant] as the compound, how does the IC50 (GR) read?
**A.** 817 nM

**Q.** Which Emax (PR-B) does the source give for CC/C(=C(/c1ccc(/C=C/C(=O)O)cc1)c1ccc2[nH]ncc2c1)c1ccc(F)cc1Cl [GDC-0810] here?
**A.** 0.35 ± 0.31%
